Measured values as given in publication PMC13077603, “Fluorine‐18‐Labeled Nucleotide Analogs Targeting Ecto‐5'‐Nucleotidase (CD73) for Positron Emission Tomography Imaging of Solid Tumors” (Angewandte Chemie (International Ed. in English), 2026).
“And” between values parts separate entries of the source, which are not always exact repeats. Equal entries are not always repeated.

Experiments:
[1] = molecular target: T1, CD73 in human breast cancer samples (Homo sapiens, UniProt P21589); experiment: Autoradiography on human breast tumor and sentinel lymph node cryosections; type: binding; details: autoradiography, cryosections
T1 construct: cryosections of breast tumor samples as well as sentinel lymph node samples were investigated; from tissue; host or cells: primary breast tumors and sentinel lymph nodes of two patients, 6 µm cryosections
T1 sequence (P21589 27-574): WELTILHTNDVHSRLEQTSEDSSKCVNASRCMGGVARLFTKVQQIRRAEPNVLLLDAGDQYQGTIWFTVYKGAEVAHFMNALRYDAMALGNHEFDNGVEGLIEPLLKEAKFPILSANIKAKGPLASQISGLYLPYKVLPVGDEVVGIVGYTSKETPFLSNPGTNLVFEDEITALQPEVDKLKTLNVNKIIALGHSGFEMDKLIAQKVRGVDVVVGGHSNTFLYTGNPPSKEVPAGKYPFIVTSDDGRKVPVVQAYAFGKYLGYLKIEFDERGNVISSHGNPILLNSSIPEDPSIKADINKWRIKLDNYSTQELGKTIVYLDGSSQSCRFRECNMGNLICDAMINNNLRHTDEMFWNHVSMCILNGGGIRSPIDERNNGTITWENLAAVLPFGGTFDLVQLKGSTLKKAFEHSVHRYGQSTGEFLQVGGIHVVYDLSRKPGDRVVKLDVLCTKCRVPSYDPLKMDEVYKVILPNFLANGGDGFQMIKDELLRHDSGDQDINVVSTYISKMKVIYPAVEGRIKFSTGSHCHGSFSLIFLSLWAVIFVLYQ
Procedure: To test specific radiotracer binding to its target, we performed in situ autoradiography. [^18F]2 was applied onto cryosections of neighboring slides of tumor tissues from primary breast tumors from patient X (Figure 4A) and patient Y (Figure 4B), used for immunohistochemistry and AMPase activity determination. Sentinel LN from patient Y was incubated with [^18F]1 (Figure 4C).
FIGURE 4 Autoradiographic imaging of ^18F‐labeled CD73 tracer binding to tissue samples of breast tumors and sentinel lymph nodes. Primary breast tumor (A, B) and LN cryosections (C) were incubated with [^18F]2 or [^18F]1 in the absence (control) and in the presence of an unlabeled CD73 inhibitor, AMPCP (13) or JMS04‐14 (14), as indicated. The samples were processed for autoradiographic analysis, as described in the materials and methods section. The white dotted lines outline the tissue boundaries. (D). Structures of CD73 inhibitors applied as blockers in this study.
For the assessment of ^18F-labeled CD73 tracer binding to human tissues, cryosections of breast tumor samples as well as sentinel lymph node samples were investigated. Cryosections were thawed and pre-incubated for 15 min at room temperature in 2-[4-(2-hydroxyethyl)piperazin-1-yl]ethanesulfonic acid buffer (HEPES). […] Blocking compounds were prepared according to the molar activity of the radiolabeled tracers [^18F]MRS-4648 and [^18F]PSB-19427 aiming at a 1000-fold excess of the blocking agent. For each tissue sample, neighboring sections were incubated for 20 min at room temperature with a mixture of 50µL of the radiotracer and 50µL of the classical CD73 inhibitor AMPCP (25 nmol, in PBS), or JMS0414 (61 nmol, in HEPES), or HEPES buffer respectively. After incubation, slides were washed three times with PBS and Aqua bidest, mounted on a slide holder for the image acquisition, and covered with protection and scintillation foils. Digital autoradiography measurement of each slide was performed for 60 minutes (Micro Imager, Biospace, France). Acquired data were corrected for radioactive decay in reference to the start of the acquisition as well as the start of the incubation.

[2] = Stability in mouse liver microsomes (MLM); type: in vitro ADME; details: after 90 min of coincubation, 5 µM compound, 37 °C
Procedure: An aqueous buffer of 75 mM PBS, 12.5 mM MgCl2, 0.6 mM NADPH, 1 mg/mL mouse liver microsomes and 5 µM of the respective compound was prepared. 200 µL of these samples were incubated for 90 min at 37 °C and […]. Afterward, acetonitrile/methanol (400 µL, 1:1) was added, and the samples were cooled to 0 °C for 10 min. 600 µL buffer was added and the solution was centrifuged for 15 min at 17,880 g. The supernatant was centrifuged again for 15 min at 17,880 g and 4 °C. The obtained solution was diluted with H2O/CH3CN/CH3OH (1:1:1) to a suitable concentration for quantification. Shortly before injection into HPLC, the solution was centrifuged again for 2 min at 17,880 g and 4 °C. The amount of remaining compound in the solution was quantified by ion count in SIM mode via HPLC-MS (CH3CN/water). The injection volume was 50 µL. Every experiment was performed in triplicate.

[3] = molecular target: Human serum albumin (HSA) (Homo sapiens, UniProt P02768); experiment: Plasma protein binding (human serum albumin binding); type: in vitro ADME; details: human serum albumin, read-out: Plasma protein binding (PPB) (converted)
Sequence of Human serum albumin (HSA) (P02768 25-609): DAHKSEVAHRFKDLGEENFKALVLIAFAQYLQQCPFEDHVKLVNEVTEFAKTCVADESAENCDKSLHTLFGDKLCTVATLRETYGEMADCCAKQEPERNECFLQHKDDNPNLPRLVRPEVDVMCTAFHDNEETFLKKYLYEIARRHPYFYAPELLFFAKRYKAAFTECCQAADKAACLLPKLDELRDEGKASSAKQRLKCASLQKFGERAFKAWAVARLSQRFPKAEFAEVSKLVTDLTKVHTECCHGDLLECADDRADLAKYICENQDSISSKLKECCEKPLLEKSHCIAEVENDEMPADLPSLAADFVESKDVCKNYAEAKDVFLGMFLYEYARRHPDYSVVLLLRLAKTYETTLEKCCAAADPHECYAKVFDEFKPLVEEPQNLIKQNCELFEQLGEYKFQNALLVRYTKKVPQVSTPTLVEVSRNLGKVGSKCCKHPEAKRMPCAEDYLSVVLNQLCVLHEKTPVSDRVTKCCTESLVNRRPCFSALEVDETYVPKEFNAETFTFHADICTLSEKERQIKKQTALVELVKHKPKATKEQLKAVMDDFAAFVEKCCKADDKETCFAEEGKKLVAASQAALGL
Procedure: Human serum albumin (HSA) binding.
Plasma protein binding was determined following previously published procedure.^[38^]

[4] = molecular target: T2, Soluble recombinant rat CD73 (Rattus norvegicus, UniProt P21588); experiment: CD73 enzyme inhibition assay, soluble rat CD73; type: biochemical; details: soluble recombinant rat CD73, Km 59 µM, substrate AMP (5 µM)
T2 sequence (P21588 29-551 limits assumed): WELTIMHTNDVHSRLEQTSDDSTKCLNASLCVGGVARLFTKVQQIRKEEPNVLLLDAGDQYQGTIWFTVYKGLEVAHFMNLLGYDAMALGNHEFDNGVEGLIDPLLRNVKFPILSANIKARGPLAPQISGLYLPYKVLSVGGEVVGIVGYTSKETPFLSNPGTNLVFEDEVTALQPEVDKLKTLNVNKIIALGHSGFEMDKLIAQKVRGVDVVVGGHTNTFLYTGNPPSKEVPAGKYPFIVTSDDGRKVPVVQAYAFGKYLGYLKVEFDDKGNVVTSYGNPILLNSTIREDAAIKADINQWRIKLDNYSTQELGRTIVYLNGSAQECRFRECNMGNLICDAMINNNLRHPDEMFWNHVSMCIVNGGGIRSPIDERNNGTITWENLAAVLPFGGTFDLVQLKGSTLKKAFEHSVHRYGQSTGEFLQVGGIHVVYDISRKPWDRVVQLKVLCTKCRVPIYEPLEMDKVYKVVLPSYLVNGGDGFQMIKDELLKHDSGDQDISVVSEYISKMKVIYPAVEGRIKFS
Procedure: Both compounds were evaluated for metabolic stability in mouse liver microsomes (MLM) and plasma protein binding (PPB) (Table 1).
(§1) The CD73 enzyme inhibition assay of recombinant soluble CD73, membrane-bound human CD73, soluble rat CD73 and mouse CD73 was performed as previously described.^[16,35^]

[5] = molecular target: T3, Human membrane‐bound CD73 (membrane preparation of MDA‐MB‐231 cell line) (Homo sapiens, UniProt P21589); experiment: CD73 enzyme inhibition assay, human membrane-bound CD73; type: biochemical; details: membrane preparation of human TNBC MDA‐MB‐231 cell line, Km 14.8 µM, substrate AMP (5 µM)
T3 construct: endogenous in cells; host or cells: MDA-MB-231 (human triple-negative breast cancer) membrane preparation
T3 sequence (P21589 27-574): T1 sequence (P21589 27-574)
Procedure: as §1

Row | Compound | Tracer binding to CD73 in human breast cancer samples [1] | Metabolic stability in mouse liver microsomes (MLM): % decomposition [2] | fraction unbound [3] | Ki [4] [nM] | Ki [5] [nM]
1 | CCCN(Cc1ccc(-c2cn(CC[18F])nn2)cc1)c1nc(Cl)nc2c1ncn2[C@@H]1O[C@H](COP(=O)(O)CP(=O)(O)O)[C@@H](O)[C@H]1O [[^18F]1, [^18F]-[((2R,3S,4R,5R)-5-{2-chloro-6-[(4-{1-[2-(fluoro)ethyl]-1H-1,2,3-triazol-4-yl}benzyl)-(propyl)amino]-9H-purin-9-yl}-3,4-dihydroxytetrahydrofuran-2-yl)methoxy]methylene-bisphosphonic acid] | selectively bind |  |  |  | 
2 | Cn1c(=O)n([C@@H]2O[C@H](COP(=O)(O)CP(=O)(O)O)[C@@H](O)[C@H]2O)cc/c1=N/OCc1ccc(-c2cn(CC[18F])nn2)cc1 [[^18F]2, [^18F]-{[(2R,3S,4R,5R)-5-(4-{[(4-{1-[2-(fluoro)ethyl]-1H-1,2,3-triazol-4-yl}benzyl)-oxy]imino}-3-methyl-2-oxo-3,4-dihydropyrimidin-1(2H)-yl)-3,4-dihydroxytetra-hydrofuran-2-yl]methoxy}methylenebisphosphonic acid] | selectively bind |  |  |  | 
3 | CCCN(Cc1ccc(-c2cn(CCF)nn2)cc1)c1nc(Cl)nc2c1ncn2[C@@H]1O[C@H](COP(=O)(O)CP(=O)(O)O)[C@@H](O)[C@H]1O [compound 1] |  | 17 ± 2% and 17% | < 0.01 | 6.09 | 2.78
